Assays:
[1] = system: Hela S3 cells; test: Inhibition of proliferation of incubated Hela S3 cells; type: cell-based; conditions: cells counted 3 days after addition of sample
Procedure: Effect of inhibiting the proliferation of incubated Hela S3 cells:
Hela S3 cells were placed on a culture medium (NEM containing 10 % of calf serum in a plastic dish. After 2 days, an organoselenium compound was added thereto. After containing the culture for additional 3 days, the number of the cells was counted. The proliferation inhibition rate was calculated according to the following formula: Inhibition rate (%) = 100 x (B-A) / (B-C) in which A is the final number of the cells counted on the third day after addition of the test sample, B is the final number of the cells in a sample- free control and C is the number of the cells counted immediately after the addition of the test sample. The value of IC50 (50 % inhibitory concentration) was determined from a graph showing the relationship between the concentration of the sample and the inhibition rate.

[2] = system: Ehrlich carcinoma; test: Antineoplastic effect on Ehrlich carcinoma in mice (survival, T/C percent); type: in vivo, male ICR mouse; conditions: in the abdomen once a day for 7 days
Procedure: Antineoplastic effect on Ehrlich carcinoma:
(§1) About 10^6/0.2 ml of Ehrlich carcinoma cells were placed in an abdomen of each male ICR mouse of 5 weeks old. On the next day the administration of the test sample in the abdomen was started. The test sample was given once a day for 7 days. For an untreated group, a physiological saline solution was given in the same manner as above. […] The T/C percent (T/C x 100) was determined from the average survival periods (days) of the treated group and control group. Further, 50 % lethal dose (LD50) was determined from the number of the mice which died of toxicity of the test samples administered.

[3] = system: Salmonella typhimurium TA-98; test: Antimutagenic properties by Ames method with benzo[a]pyrene as mutagen; type: cell-based; conditions: for Number of colonies: B(a)P, S-9 mix; for inhibition rate: inhibition of the mutagenic effect of B(a)P
Procedure: The experiment was carried out by Ames method using Salmonella typhimurium TA-98 (hereinafter referred to as TA-98) as the test microorganism and benzo[a]pyrene (hereinafter referred to as B(a)P) as the mutagen.
0.1 ml of a solution containing […] of B(a)P and a suitable amount of a compound of the present invention was added to 0.5 ml of S-9 mix and 0.1 ml of a TA-98 suspension. The mixture was incubated at 37°C for 20 min. 2 ml of soft agar was added thereto, mixed well and then spread evenly on a glucose minimum agar medium plate. After the incubation at 37°C for 48 h, the number of colonies formed by the back mutation was counted.
The number of the colonies formed when neither B(a)P nor the compound of the present invention was used was employed as the background.
The antimutagenic properties was shown as the rate of inhibition of the mutagenic effect according to the following formula: [formula]

[4] = 50 % lethal dose from toxic deaths in the Ehrlich carcinoma experiment; type: in vivo, male ICR mouse; conditions: mice bearing Ehrlich carcinoma, in the abdomen once a day for 7 days; 43200 min
Procedure: as §1

O=[Se](Cl)Cl.c1ccncc1 [Selenium oxychloride·pyridine (1:1) complex]
IC50 [1]: 0.59 µg/mL

selenium oxychloride·pyridine complex [Compound 4]
Antineoplastic effect (T/C percent) ([2]; dose 2.0 mg/kg, observation period 30 days): 178.6% | Antineoplastic effect (T/C percent) ([2]; dose 2.0 mg/kg, observation period 60 days): 218% | Antineoplastic effect (T/C percent) ([2]; dose 4.0 mg/kg, observation period 30 days): 188.1% | Antineoplastic effect (T/C percent) ([2]; dose 4.0 mg/kg, observation period 60 days): 270% | Antineoplastic effect (T/C percent) ([2]; dose 8.0 mg/kg, observation period 30 days): 200.8% | Antineoplastic effect (T/C percent) ([2]; dose 8.0 mg/kg, observation period 60 days): 297% | Number of colonies ([3]; dose 0.5 µg/plate): 213 | inhibition rate ([3]; dose 0.5 µg/plate): 23.0% | Number of colonies ([3]; dose 1 µg/plate): 192 | inhibition rate ([3]; dose 1 µg/plate): 32.8% | Number of colonies ([3]; dose 5 µg/plate): 180 | inhibition rate ([3]; dose 5 µg/plate): 37.7% | Number of colonies ([3]; dose 10 µg/plate): 144 | inhibition rate ([3]; dose 10 µg/plate): 52.5% | Number of colonies ([3]; dose 50 µg/plate): 93 | inhibition rate ([3]; dose 50 µg/plate): 73.4% | Number of colonies ([3]; dose 100 µg/plate): 87 | inhibition rate ([3]; dose 100 µg/plate): 75.8% | Number of colonies ([3]; dose 500 µg/plate): 41 | inhibition rate ([3]; dose 500 µg/plate): 94.7% | LD50 [4]: 8 - 16 mg/kg/day x7

Reference: patent publication EP0182317A2, “Antineoplastic agent” (priority 1984, dated 1986)
